Legend:
Assay type in all cases: biochemical
MMP9 = biological target: T1, MMP9 (Homo sapiens, UniProt P14780); assay: MMP-9 colorimetric inhibition assay (Enzo kit); conditions: colorimetric thiopeptide substrate, absorbance 415 nm; read-out: MMP9 IC50 class
T1 construct: purchased Enzo Life Sciences, Inc. BML-AK410
Experimental: (§1) The inhibitory activities of the compounds of the invention were assessed in 96-well microplate format using MMP1, MMP2, MMP9 and MMP13 colorimetric assay kits and TACE fluorometric assay kit from Enzo Life Sciences, Inc. The inhibitory effect of the compounds of the invention on ADAM10 activity were evaluated in 96-well microplate format using fluorometric assay from AnaSpec, Inc.
(§2) The MMP-9 Colorimetric Drug Discovery Kit (catalog #BML-AK410) is a complete assay system designed to screen inhibitors of matrix metalloproteinase-9 using a thiopeptide as a chromogenic substrate (Ac-PLG-[2-mercapto-4-methylpentanoyl]-LG-OC2H5). The MMP cleavage site peptide bond is replaced by a thioester bond in the thiopeptide. Hydrolysis of this bond by an MMP produces a sulfhydryl group, which reacts with DTNB [5,5′-dithiobis(2-nitrobenzoic acid), Ellman's reagent] to form 2-nitro-5-thiobenzoic acid, that can be detected spectrophotometrically.
(§3) The inhibitory activities of the compounds of the invention against MMP1, MMP2, MMP9 and MMP13 were tested according to the manufacturer's assay protocols and the absorbance at 415 nm was monitored using the Tecan Infinite® 200 Pro F Nano^+ microplate reader.
(§4) The normalized values were analyzed using GraphPadPrism 9 for Windows (GraphPad Software, San Diego, CA, USA) software by plotting inhibition curves and determining the IC50 values.
(§5) The calculated IC50 values were divided into the following classes: • A: <50 nM; B: 50-1000 nM; C: >1000-10,000 nM; D: >10,000 nM

MMP2 = biological target: T2, MMP2 (Homo sapiens, UniProt P08253); assay: MMP-2 colorimetric inhibition assay (Enzo kit); conditions: colorimetric thiopeptide substrate, absorbance 415 nm; read-out: MMP2 IC50 class
T2 construct: purchased Enzo Life Sciences, Inc. BML-AK408
T2 sequence (P08253 110-452 limits assumed): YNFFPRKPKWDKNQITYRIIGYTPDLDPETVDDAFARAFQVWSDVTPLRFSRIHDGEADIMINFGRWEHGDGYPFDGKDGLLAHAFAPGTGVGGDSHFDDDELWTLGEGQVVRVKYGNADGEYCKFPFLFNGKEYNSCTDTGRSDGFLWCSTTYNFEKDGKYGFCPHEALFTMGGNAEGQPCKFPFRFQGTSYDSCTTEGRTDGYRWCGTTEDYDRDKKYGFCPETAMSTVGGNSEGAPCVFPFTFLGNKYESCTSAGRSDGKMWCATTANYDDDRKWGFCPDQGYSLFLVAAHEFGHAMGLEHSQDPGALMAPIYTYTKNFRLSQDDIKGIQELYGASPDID
Experimental: as §1
as §2, with “MMP-2” for “MMP-9”, “#BML-AK408)” for “#BML-AK410)”, “screen MMP-2” for “screen”, “inhibitors” for “inhibitors of matrix metalloproteinase-9”
as §3, §4, §5

MMP13 = biological target: T3, MMP13 (Homo sapiens, UniProt P45452); assay: MMP-13 colorimetric inhibition assay (Enzo kit); conditions: colorimetric thiopeptide substrate, absorbance 415 nm; read-out: MMP13 IC50 class
T3 construct: purchased Enzo Life Sciences, Inc. BML-AK412
Experimental: as §1
as §2, with “MMP-13” for “MMP-9”, “#BML-AK412)” for “#BML-AK410)”, “metalloproteinase-13” for “metalloproteinase-9”
as §3, §4, §5

MMP1 = biological target: T4, MMP1 (Homo sapiens, UniProt P03956); assay: MMP-1 colorimetric inhibition assay (Enzo kit); conditions: colorimetric thiopeptide substrate, absorbance 415 nm; read-out: MMP1 IC50 class
T4 construct: purchased Enzo Life Sciences, Inc. BML-AK404
T4 sequence (P03956 100-469): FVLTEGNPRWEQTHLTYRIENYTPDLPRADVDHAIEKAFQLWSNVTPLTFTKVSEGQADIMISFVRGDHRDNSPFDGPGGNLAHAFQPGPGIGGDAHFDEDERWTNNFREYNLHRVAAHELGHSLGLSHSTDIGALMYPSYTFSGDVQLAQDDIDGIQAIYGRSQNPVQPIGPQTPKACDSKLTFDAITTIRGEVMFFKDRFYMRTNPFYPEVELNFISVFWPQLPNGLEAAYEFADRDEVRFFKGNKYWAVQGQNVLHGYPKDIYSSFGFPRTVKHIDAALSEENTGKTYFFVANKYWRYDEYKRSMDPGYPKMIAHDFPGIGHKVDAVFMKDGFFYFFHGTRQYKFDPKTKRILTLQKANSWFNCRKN
Experimental: as §1
as §2, with “MMP-1” for “MMP-9”, “#BML-AK404)” for “#BML-AK410)”, “metalloproteinase-1” for “metalloproteinase-9”
as §3, §4, §5

TACE (ADAM17) = biological target: T5, TACE (ADAM17) (Homo sapiens, UniProt P78536); assay: TACE fluorometric inhibition assay (Enzo kit); conditions: quenched fluorogenic peptide, ex/em 320 nm/420 nm; read-out: TACE IC50 class
T5 construct: purchased Enzo Life Sciences, Inc. BML-AK310
T5 sequence (P78536 223-474 limits assumed): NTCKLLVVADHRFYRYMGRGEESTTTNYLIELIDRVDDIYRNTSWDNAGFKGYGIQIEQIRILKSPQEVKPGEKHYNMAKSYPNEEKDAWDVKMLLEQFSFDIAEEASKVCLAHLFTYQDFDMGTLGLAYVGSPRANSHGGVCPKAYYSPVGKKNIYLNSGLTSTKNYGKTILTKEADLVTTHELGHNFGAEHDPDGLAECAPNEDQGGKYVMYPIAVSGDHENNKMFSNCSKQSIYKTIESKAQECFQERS
Experimental: as §1
The TACE Fluorometric Drug Discovery Kit (catalog #BML-AK310) is a complete assay system designed to screen ADAM17 (TACE) inhibitors using a quenched fluorogenic peptide: Mca-PLAQAV-Dpa-RSSSR-NH2. Mca fluorescence is quenched by the Dpa group until cleavage by proteases separates the two moieties leading to an increase in Mca fluorescence.
The inhibitory activity of the compounds of the invention against TACE was tested according to the manufacturer's assay protocol and the fluorescence was monitored at excitation/emission wavelengths=320 nm/420 nm using Tecan Infinite® 200 Pro F Nano^+ microplate reader.
as §4, §5

T1 sequence (P14780 94-707): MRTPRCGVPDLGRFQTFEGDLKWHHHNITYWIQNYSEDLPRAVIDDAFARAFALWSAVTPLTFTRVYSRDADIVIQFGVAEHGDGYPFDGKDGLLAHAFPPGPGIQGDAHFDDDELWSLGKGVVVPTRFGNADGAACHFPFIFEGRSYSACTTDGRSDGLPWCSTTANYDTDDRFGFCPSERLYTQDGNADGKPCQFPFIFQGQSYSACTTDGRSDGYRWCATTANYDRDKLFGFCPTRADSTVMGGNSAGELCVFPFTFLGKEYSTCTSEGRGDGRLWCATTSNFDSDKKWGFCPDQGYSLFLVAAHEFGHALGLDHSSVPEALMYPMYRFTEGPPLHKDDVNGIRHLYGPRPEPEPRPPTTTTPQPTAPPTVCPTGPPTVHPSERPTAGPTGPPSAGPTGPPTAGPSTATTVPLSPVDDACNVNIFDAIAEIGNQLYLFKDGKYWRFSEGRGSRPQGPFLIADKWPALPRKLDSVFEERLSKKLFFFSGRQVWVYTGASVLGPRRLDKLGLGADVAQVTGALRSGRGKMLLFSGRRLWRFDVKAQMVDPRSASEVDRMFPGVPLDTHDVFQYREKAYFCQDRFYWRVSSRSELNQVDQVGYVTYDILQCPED

| SMILES | IC50 (MMP9) | IC50 (MMP2) | IC50 (MMP13) | IC50 (MMP1) | IC50 (TACE (ADAM17)) |
| --- | --- | --- | --- | --- | --- |
| COCCOC(=O)N1CC2CCC(C(=O)NO)(C1)N2S(=O)(=O)c1ccc(Oc2ccc(F)cc2)c(F)c1 (stereo not drawn) [Example 5, 2-methoxyethyl 8-((3-fluoro-4-(4-fluorophenoxy)phenyl)sulfonyl)-1-(hydroxycarbamoyl)-3,8-diazabicyclo[3.2.1]octane-3-carboxylate] | < 50 nM | < 50 nM | < 50 nM | > 10000 nM | > 10000 nM |
| COCCOC(=O)N1CC2CCC(C(=O)NO)(C1)N2S(=O)(=O)N1CCC(Oc2ccc(F)cn2)CC1 (stereo not drawn) [Example 20, 2-methoxyethyl 8-((4-((5-fluoropyridin-2-yl)oxy)piperidin-1-yl)sulfonyl)-1-(hydroxycarbamoyl)-3,8-diazabicyclo[3.2.1]octane-3-carboxylate] | 50 to 1000 nM | 50 to 1000 nM | 50 to 1000 nM | > 10000 nM | > 10000 nM |
| COCCOC(=O)N1CC2CCC(C(=O)NO)(C1)N2S(=O)(=O)N1CCC(Oc2ccncc2)CC1 (stereo not drawn) [Example 21, 2-methoxyethyl 1-(hydroxycarbamoyl)-8-((4-(pyridin-4-yloxy)piperidin-1-yl)sulfonyl)-3,8-diazabicyclo[3.2.1]octane-3-carboxylate] | 50 to 1000 nM | < 50 nM | 50 to 1000 nM | > 10000 nM | > 10000 nM |
| COCCOC(=O)N1CC2CCC(C(=O)NO)(C1)N2S(=O)(=O)N1CCC(Oc2ccc(Cl)cc2)CC1 (stereo not drawn) [Example 19, 2-methoxyethyl 8-((4-(4-chlorophenoxy)piperidin-1-yl)sulfonyl)-1-(hydroxycarbamoyl)-3,8-diazabicyclo[3.2.1]octane-3-carboxylate] | < 50 nM | < 50 nM | < 50 nM | 1000 to 10000 nM | 1000 to 10000 nM |
| COCCOC(=O)N1CC2CCC(C(=O)NO)(C1)N2S(=O)(=O)N1CCN(Cc2ccc(F)cc2)CC1 (stereo not drawn) [Example 22, 2-methoxyethyl 8-((4-(4-fluorobenzyl)piperazin-1-yl)sulfonyl)-1-(hydroxycarbamoyl)-3,8-diazabicyclo[3.2.1]octane-3-carboxylate] | 1000 to 10000 nM | 1000 to 10000 nM | 1000 to 10000 nM | > 10000 nM | > 10000 nM |
| COCCOC(=O)N1CC2CCC(C(=O)NO)(C1)N2S(=O)(=O)c1ccc(Oc2ccc(F)cc2)nc1 (stereo not drawn) [Example 13, 2-methoxyethyl 8-((6-(4-fluorophenoxy)pyridin-3-yl)sulfonyl)-1-(hydroxycarbamoyl)-3,8-diazabicyclo[3.2.1]octane-3-carboxylate] | < 50 nM | 50 to 1000 nM | 50 to 1000 nM | 1000 to 10000 nM | 1000 to 10000 nM |
